Ki data for one compound are collected here from BindingDB's records for doi:10.3109/14756366.2010.486794 (University of Lisbon, 2011).

For this assay, the target named is T1, Neutrophil elastase (Homo sapiens, UniProt P08246).
T1 sequence (P08246 whole entry): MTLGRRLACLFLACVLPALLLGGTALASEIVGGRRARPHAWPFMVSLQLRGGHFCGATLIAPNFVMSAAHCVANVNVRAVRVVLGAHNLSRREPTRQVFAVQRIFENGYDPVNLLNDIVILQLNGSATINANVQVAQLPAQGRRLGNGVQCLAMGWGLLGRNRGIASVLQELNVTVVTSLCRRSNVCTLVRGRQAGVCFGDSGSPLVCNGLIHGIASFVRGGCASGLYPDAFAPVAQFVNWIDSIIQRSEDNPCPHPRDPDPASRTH
Put plainly: Enzyme Kinetic Assay. The note with it: 25 °C. On the procedure:
The inhibition of the HLE was studied at 25°C by continuously monitoring the absorbance at 410 nm for 20 min of a solution prepared by mixing 10 μL of HLE stock solution (2 μM in 0.05M acetate buffer, pH 5.5) with a solution containing 10 μL of 5 in DMSO, 20 μL of MeOSuc-Ala-Ala-Pro-Val-p-NA (50 mM in DMSO) and 960 μL of 0.1M pH 7.2 HEPES buffer. Control assays, in which the inhibitor was omitted, ran linearly.

Usually Ki stands for the dissociation constant of the complex between target and ligand, obtained from inhibition or displacement.

Compound `CCC1(CC)C(=O)N(c2ccc(CS(=O)(=O)c3ccccc3)cc2)C1=O` [4-oxo-β-lactam (3)] gave a Ki of 0.63 nM.
